Values joined by “and” are separate entries in the source; they are usually repeats but may differ in a detail not shown here. Equal entries are not always repeated.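 96-well plates; 48 h exposure; 5 concentrations. Endpoints by linear interpolation between flanking doses. Not reached: highest tested concentration assigned. GI50: concentration for 50% inhibition of growth.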 Active and inactive are the calls of the source. Cut-off read from the data, not from the text of the source: active = GI50 up to about 1.1 µM and inactive = higher.
Key:
Experiment in all cases: NCI-60 cell line screen, 48 h
HCC 2998 = test system: HCC 2998
HL-60 = test system: HL-60
HT-29 = test system: HT-29
K562 = test system: K562
LOX IMVI = test system: LOX IMVI
M19-MEL = test system: M19-MEL
NCI-H23 = test system: NCI-H23
OVCAR-3 = test system: OVCAR-3
SK-MEL-28 = test system: SK-MEL-28
SK-MEL-2 = test system: SK-MEL-2
SK-OV-3 = test system: SK-OV-3
SN12C = test system: SN12C
SNB-75 = test system: SNB-75
SNB-78 = test system: SNB-78
TK-10 = test system: TK-10
BT-549 = test system: BT-549
Hs-578T = test system: Hs-578T
MCF7 = test system: MCF7
MDA-MB-231 = test system: MDA-MB-231
PC-3 = test system: PC-3

Compound	GI50 (HCC 2998)	GI50 (HL-60)	GI50 (HT-29)	GI50 (K562)	GI50 (LOX IMVI)	GI50 (M19-MEL)	GI50 (NCI-H23)	GI50 (OVCAR-3)	GI50 (SK-MEL-28)	GI50 (SK-MEL-2)	GI50 (SK-OV-3)	GI50 (SN12C)	GI50 (SNB-75)	GI50 (SNB-78)	GI50 (TK-10)	GI50 (BT-549)	GI50 (Hs-578T)	GI50 (MCF7)	GI50 (MDA-MB-231)	GI50 (PC-3)
COC(=O)C(Cc1nc2ccc(Cl)cc2nc1O)/C(=N/NC(N)=O)C(=O)Nc1ccc(Cl)cc1 (centres undefined)	> 100 µM (inactive)	> 100 µM (inactive)	> 100 µM (inactive)	> 100 µM (inactive)	> 100 µM (inactive)	> 100 µM (inactive)	> 100 µM (inactive)	> 100 µM (inactive)	> 100 µM (inactive)	> 100 µM (inactive)	> 100 µM (inactive)	> 100 µM (inactive)	> 100 µM (inactive)	> 100 µM (inactive)	> 100 µM (inactive)					
Cn1cnc([N+](=O)[O-])c1Sc1nnc(-c2cccnc2)n1C	30.9 µM (inactive)	6.55 µM (inactive)	17.4 µM (inactive)	19.9 µM (inactive)	17.8 µM (inactive)	19.1 µM (inactive)	23.1 µM (inactive)	17.2 µM (inactive)	17.5 µM (inactive)	18.5 µM (inactive)	> 100 µM (inactive)	25.4 µM (inactive)	58.7 µM (inactive)	21.4 µM (inactive)	16.8 µM (inactive)	19 µM (inactive)	34.7 µM (inactive)	23.8 µM (inactive)	19.2 µM (inactive)	25 µM (inactive)
COc1nc(=O)n(COC(CO)CN2C(=O)c3ccccc3C2=O)cc1Cc1cccc(OCc2ccccc2)c1 (centres undefined)	20.7 µM (inactive)	21.1 µM (inactive)	34 µM (inactive)	24.9 µM (inactive)	20.1 µM (inactive)	20.7 µM (inactive)	27.2 µM (inactive)	21.9 µM (inactive)	17.2 µM (inactive)	15.4 µM (inactive)	26.5 µM (inactive)	22 µM (inactive)	15.5 µM (inactive)	31.6 µM (inactive)	27 µM (inactive)					
CN1c2ccccc2N(C)C2C1N(C)c1ccccc1N2C (centres undefined)	9.73 µM (inactive)	2.29 µM (inactive)	7.78 µM (inactive)	3.42 µM (inactive)	5.25 µM (inactive)	6.84 µM (inactive)	16.8 µM (inactive)	8.71 µM (inactive)	4.69 µM (inactive)	9.59 µM (inactive)		20 µM (inactive)	6.9 µM (inactive)	18.9 µM (inactive)	36.9 µM (inactive)					
COC(=O)c1ccc(CS(=O)(=O)c2ccccc2)cc1	> 100 µM (inactive)	76.6 µM (inactive)	40.8 µM (inactive)	> 100 µM (inactive)	74.3 µM (inactive)	45.4 µM (inactive)	> 100 µM (inactive)	> 100 µM (inactive)	> 100 µM (inactive)	38.5 µM (inactive)	> 100 µM (inactive)	> 100 µM (inactive)	48.3 µM (inactive)	> 100 µM (inactive)	> 100 µM (inactive)					
O=c1c(Cl)c(Cl)cnn1-c1ccccc1	3.42 µM (inactive) and 3.85 µM (inactive)	893 nM (active) and 1.09 µM (active)		968 nM (active) and 929 nM (active)	1.8 µM (inactive) and 1.19 µM (inactive)	3.05 µM (inactive) and 3.13 µM (inactive)		2.03 µM (inactive) and 1.99 µM (inactive)	3.4 µM (inactive) and 2.3 µM (inactive)	3.94 µM (inactive) and 3.28 µM (inactive)		2.06 µM (inactive) and 3.85 µM (inactive)		7.33 µM (inactive)	15.6 µM (inactive) and 9.33 µM (inactive)	1.8 µM (inactive) and 1.73 µM (inactive)	1.54 µM (inactive) and 2.56 µM (inactive)	4.07 µM (inactive) and 3.31 µM (inactive)	1.77 µM (inactive)	
CCC(=O)OCOc1ccc(/C=C2\CCC(CN(C)C)C2=O)cc1 (centres undefined)	5.96 µM (inactive)	1.36 µM (inactive)	6.31 µM (inactive)	1.85 µM (inactive)	1.94 µM (inactive)	4.47 µM (inactive)	5.42 µM (inactive)	3.7 µM (inactive)	4.29 µM (inactive)	11 µM (inactive)	15.7 µM (inactive)	2.72 µM (inactive)	12.8 µM (inactive)	9.68 µM (inactive)	9.12 µM (inactive)	2.05 µM (inactive)	6.27 µM (inactive)	3.03 µM (inactive)	3.67 µM (inactive)	14.2 µM (inactive)
COC1C(CN[N+](=O)CC2OC3OC(C)(C)OC3C2OC)OC2OC(C)(C)OC21 (centres undefined)	> 100 µM (inactive)	> 100 µM (inactive)	> 100 µM (inactive)	> 10 µM (inactive)	> 100 µM (inactive)	> 100 µM (inactive)	> 100 µM (inactive)	> 100 µM (inactive)	> 100 µM (inactive)	> 100 µM (inactive)	> 100 µM (inactive)	> 100 µM (inactive)	> 100 µM (inactive)	> 100 µM (inactive)	> 100 µM (inactive)					

From ChEMBL document CHEMBL1201862, “PubChem BioAssay data set” (2004)
